Experiments:
oval-leafed pondweed = assay: Test Example 1: herbicidal activity, application before weed generation under submerged conditions (Table 16, symbol C); assay type: in vivo, oval-leafed pondweed (Monochoria vaginalis); conditions: amount of applied herbicide 320 g/ha
Outline: (§1)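 Submerged Wagner pots (alluvial soil, 4 cm water) sown with weed seeds and planted with 2.5-leaf rice seedlings; emulsifiable concentrate diluted in water applied to water surface on sowing day. Held in greenhouse at 25-30 °C; injury scored 0-5 by herbicidal rate after three weeks.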

lambsquarters = assay: Test Example 5: herbicidal effect by foliage application, plastic box (Table 20, symbol O); assay type: in vivo, lambsquarters (Chenopodium album); conditions: 320 g/ha, foliage application after 14-day growth, evaluated three weeks after application
Outline: (§2)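 Plants were sown into sterilized diluvial soil under about 1.5 cm cover and kept in a greenhouse at 25° C. to 30° C. Fourteen days on, foliage received an even spray of the diluted emulsion. Herbicidal or crop effect was judged three weeks afterwards.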

green foxtail = assay: Test Example 5: herbicidal effect by foliage application, plastic box (Table 20, symbol G); assay type: in vivo, green foxtail (Setaria viridis); conditions: 320 g/ha, foliage application after 14-day growth, evaluated three weeks after application
Outline: as §2

barnyard grass [1] = assay: Test Example 3: herbicidal effect by foliage application, Wagner pot (Table 18, symbol H); assay type: in vivo, barnyard grass (Echinochloa crus-galli); conditions: 320 g/ha
Outline: (§3)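 Plants were sown in alluvial soil held under 0.1–0.5 cm standing water and grown 14 days in a greenhouse at 25–30 °C. An emulsifiable formulation, water-diluted to the set dose, was then sprayed onto the foliage, and effects were scored three weeks later using previously defined criteria.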

Italian ryegrass = assay: Test Example 5: herbicidal effect by foliage application, plastic box (Table 20, symbol K); assay type: in vivo, Italian ryegrass (Lolium multiflorum); conditions: 320 g/ha, foliage application after 14-day growth, evaluated three weeks after application
Outline: as §2

windgrass = assay: Test Example 5: herbicidal effect by foliage application, plastic box (Table 20, symbol L); assay type: in vivo, windgrass (Apera spica-venti); conditions: 320 g/ha, foliage application after 14-day growth, evaluated three weeks after application
Outline: as §2

rice flat sedge = assay: Test Example 3: herbicidal effect by foliage application, Wagner pot (Table 18, symbol E); assay type: in vivo, rice flat sedge (Cyperus iria); conditions: 320 g/ha
Outline: as §3

barnyard grass [2] = assay: Test Example 5: herbicidal effect by foliage application, plastic box (Table 20, symbol H); assay type: in vivo, barnyard grass (Echinochloa crus-galli); conditions: 320 g/ha, foliage application after 14-day growth, evaluated three weeks after application
Outline: as §2

redroot pigweed = assay: Test Example 5: herbicidal effect by foliage application, plastic box (Table 20, symbol N); assay type: in vivo, redroot pigweed (Amaranthus retroflexus); conditions: 320 g/ha, foliage application after 14-day growth, evaluated three weeks after application
Outline: as §2

wild oat = assay: Test Example 5: herbicidal effect by foliage application, plastic box (Table 20, symbol I); assay type: in vivo, wild oat (Avena fatua); conditions: 320 g/ha, foliage application after 14-day growth, evaluated three weeks after application
Outline: as §2

blackgrass = assay: Test Example 5: herbicidal effect by foliage application, plastic box (Table 20, symbol J); assay type: in vivo, blackgrass (Alopecurus myosuroides); conditions: 320 g/ha, foliage application after 14-day growth, evaluated three weeks after application
Outline: as §2

persian speedwell = assay: Test Example 5: herbicidal effect by foliage application, plastic box (Table 20, symbol R); assay type: in vivo, Persian speedwell (Veronica persica); conditions: 320 g/ha, foliage application after 14-day growth, evaluated three weeks after application
Outline: as §2

Japanese bulrush = assay: Test Example 1: herbicidal activity, application before weed generation under submerged conditions (Table 16, symbol B); assay type: in vivo, Japanese bulrush (Schoenoplectus juncoides); conditions: amount of applied herbicide 320 g/ha
Outline: as §1

velvetleaf = assay: Test Example 5: herbicidal effect by foliage application, plastic box (Table 20, symbol M); assay type: in vivo, velvetleaf (Abutilon theophrasti); conditions: 320 g/ha, foliage application after 14-day growth, evaluated three weeks after application
Outline: as §2

southern crabgrass = assay: Test Example 5: herbicidal effect by foliage application, plastic box (Table 20, symbol F); assay type: in vivo, southern crabgrass (Digitaria ciliaris); conditions: 320 g/ha, foliage application after 14-day growth, evaluated three weeks after application
Outline: as §2

late watergrass = assay: Test Example 1: herbicidal activity, application before weed generation under submerged conditions (Table 16, symbol A); assay type: in vivo, late watergrass (Echinochloa oryzicola); conditions: amount of applied herbicide 320 g/ha
Outline: as §1

Chinese sprangletop = assay: Test Example 3: herbicidal effect by foliage application, Wagner pot (Table 18, symbol D); assay type: in vivo, chinese sprangletop (Leptochloa chinensis); conditions: 320 g/ha
Outline: as §3

chickweed = assay: Test Example 5: herbicidal effect by foliage application, plastic box (Table 20, symbol P); assay type: in vivo, common chickweed (Stellaria media); conditions: 320 g/ha, foliage application after 14-day growth, evaluated three weeks after application
Outline: as §2

Row | Compound | Herbicidal effect, C: oval-leafed pondweed (oval-leafed pondweed) | herbicidal effect on O: lambsquarters (evaluation grade 0-5) (lambsquarters) | herbicidal effect on G: green foxtail (evaluation grade 0-5) (green foxtail) | herbicidal effect on barnyard grass (H) (barnyard grass [1]) | herbicidal effect on K: Italian ryegrass (evaluation grade 0-5) (Italian ryegrass) | herbicidal effect on L: windgrass (evaluation grade 0-5) (windgrass) | herbicidal effect on rice flat sedge (E) (rice flat sedge) | herbicidal effect on H: barnyard grass (evaluation grade 0-5) (barnyard grass [2]) | herbicidal effect on N: redroot pigweed (evaluation grade 0-5) (redroot pigweed) | herbicidal effect on I: wild oat (evaluation grade 0-5) (wild oat) | herbicidal effect on J: blackgrass (evaluation grade 0-5) (blackgrass) | herbicidal effect on R: persian speedwell (evaluation grade 0-5) (persian speedwell) | Herbicidal effect, B: Japanese bulrush (Japanese bulrush) | herbicidal effect on M: velvetleaf (evaluation grade 0-5) (velvetleaf) | herbicidal effect on F: southern crabgrass (evaluation grade 0-5) (southern crabgrass) | Herbicidal effect, A: late watergrass (late watergrass) | herbicidal effect on Chinese sprangletop (D) (Chinese sprangletop) | herbicidal effect on P: chickweed (evaluation grade 0-5) (chickweed)
1 | CCCC(=O)Oc1c(C)nn(C)c(=O)c1-c1c(-c2ccccc2C)sc2c(Cl)cccc12 [4-061] | 0 (Herbicidal rate of 5% or less (almost no effect)) | 0 (Herbicidal rate of 5% or less (almost no effect)) | 0 (Herbicidal rate of 5% or less (almost no effect)) | 3 (Herbicidal rate of 40% or more and less than 70%) | 0 (Herbicidal rate of 5% or less (almost no effect)) | 0 (Herbicidal rate of 5% or less (almost no effect)) | 4 (Herbicidal rate of 70% or more and less than 90%) | 0 (Herbicidal rate of 5% or less (almost no effect)) | 2 (Herbicidal rate of 20% or more and less than 40%) | 0 (Herbicidal rate of 5% or less (almost no effect)) | 0 (Herbicidal rate of 5% or less (almost no effect)) | 2 (Herbicidal rate of 20% or more and less than 40%) | 0 (Herbicidal rate of 5% or less (almost no effect)) | 0 (Herbicidal rate of 5% or less (almost no effect)) | 0 (Herbicidal rate of 5% or less (almost no effect)) | 3 (Herbicidal rate of 40% or more and less than 70%) | 3 (Herbicidal rate of 40% or more and less than 70%) | 3 (Herbicidal rate of 40% or more and less than 70%)
2 | CCc1ccccc1-c1sc2c(Cl)cccc2c1-c1c(O)c(C)nn(C)c1=O [4-062] | 0 (Herbicidal rate of 5% or less (almost no effect)) | 0 (Herbicidal rate of 5% or less (almost no effect)) | 3 (Herbicidal rate of 40% or more and less than 70%) | 4 (Herbicidal rate of 70% or more and less than 90%) | 0 (Herbicidal rate of 5% or less (almost no effect)) | 0 (Herbicidal rate of 5% or less (almost no effect)) | 3 (Herbicidal rate of 40% or more and less than 70%) | 1 (Herbicidal rate of 5% or more and less than 20%) | 3 (Herbicidal rate of 40% or more and less than 70%) | 0 (Herbicidal rate of 5% or less (almost no effect)) | 0 (Herbicidal rate of 5% or less (almost no effect)) | 3 (Herbicidal rate of 40% or more and less than 70%) | 2 (Herbicidal rate of 20% or more and less than 40%) | 2 (Herbicidal rate of 20% or more and less than 40%) | 1 (Herbicidal rate of 5% or more and less than 20%) | 0 (Herbicidal rate of 5% or less (almost no effect)) | 4 (Herbicidal rate of 70% or more and less than 90%) | 3 (Herbicidal rate of 40% or more and less than 70%)
